Holding throughout (assay): Antimicrobial challenge test in analogy to NF EN ISO 11930
Common to all, as to format: cell-based

One test concerns Candida albicans. How it is done:
(§1) The antimicrobial efficacy was assessed in analogy to the regulatory challenge test method (NF EN IS011930). Thus, mixtures of the respective active(s) with physiological serum with 0.85 wt.-% NaCl in the concentrations as outlined below are prepared under sterile conditions. Controls were also prepared under sterile conditions. The control as well as the mixtures were then deposed in 96-deep well plates (1.6 ml/well). The wells were contaminated with the respective bacterial or the fungal strains at 2.5*10^5 to 5.6*10^5 cfu/ml for the bacteria and 1*10^4 to 2.5*10^4 cfu/ml for the fungi to obtain the initial contamination as outlined below. After the contamination, each well was thoroughly mixed to ensure a homogeneous distribution of microbes. Then each plate was incubated at 22° C. for 24 h. The counting of the (remaining) population is carried out 24 h after contamination. Then, the average log reduction is calculated [−log 10{(value inoculum)/(value sample)}] which is represented in tables 1-5.

The subject of another test is Aspergillus brasiliensis. The settings on record: 0.3 wt.-% DBO, 24 h at 22° C. How it is done:
as §1, with “The wells were contaminated with the respective bacterial or the fungal strains at 2.5*10^5 to 5.6*10^5 cfu/ml for the bacteria and 1*10^4 to 2.5*10^4 cfu/ml for the fungi to obtain the initial contamination as outlined below.” left out

In the next test the test system is Staphylococcus aureus. The note with it: 0.3 wt.-% HAP, 24 h. The method, then: as §1
Another test concerns Escherichia coli. The settings on record: 0.2 wt.-% Sodium Benzoate, 24 h. The method, then:
as §1

Molecules are shown by their SMILES.

As for `c1ccc2oc(-c3ccc(-c4nc5ccccc5o4)cc3)nc2c1` [DBO, 1,4-di(benzoxazol-2′-yl)benzene], the Log reduction is −0.51 in the test with Candida albicans (0.3 wt.-% DBO, 24 h at 22° C.) and −2.05 with Aspergillus brasiliensis. The “24 h colony count” value came to 10000 cfu/ml with Candida albicans (0.3 wt.-% DBO, 24 h at 22° C., inoculum 32000 cfu/ml) and 400 cfu/ml in the test with Aspergillus brasiliensis (inoculum 45000 cfu/ml).
The compound `CC(=O)c1ccc(O)cc1` [HAP, 1-(4-hydroxyphenyl)-ethanone] gave a Log reduction in the test on Staphylococcus aureus of −1.16. The “Staphylococcus aureus colony count” value with Staphylococcus aureus (550000 cfu/ml at 0 h) is 70000 cfu/ml.
`OCCCO` [PDO, 1,3-propanediol] had a Log reduction with Candida albicans (1.0 wt.-% PDO, 24 h) of −0.24. In addition, the “Candida albicans colony count” value in the test with Candida albicans (1.0 wt.-% PDO, 24 h, 70000 cfu/ml at 0 h) amounted to 40000 cfu/ml.
On to `O=C([O-])c1ccccc1.[Na+]` [Sodium Benzoate, sodium benzoate], for which, in the test with Escherichia coli, the Log reduction entry was “+0.40”. The “Escherichia coli colony count” value in the test on Escherichia coli (400000 cfu/ml at 0 h) worked out at 1000000 cfu/ml.

The values above are taken from patent publication US20220322667A1, “MICROBIOCIDAL USE” (DSM IP ASSETS B.V., priority 2019, published 2022).
